Experimental data as given in US12383534B2, “Methods for treating cancer” (REGENTS OF THE UNIVERSITY OF MINNESOTA, priority 2021, dated 2025).

Legend:
[1] = test system: Ewing sarcoma cell lines (AF573, TC71, A673); assay: Cell viability (ATP) assay in Ewing sarcoma cell lines; assay type: cell-based; conditions: 0.003 and 0.03 μM, 48 hours
Protocol: Cell lines were plated in a 96 well dish (1×10^5 cells/well), and the following day were treated with iP300w or its stereoisomers. ATP assays were performed using CellTiter-Glo® Luminescent Cell Viability Assay (Promega) according to the manufacturer's instructions. Luminescence was analyzed on POLARstar Optima Microplate Reader (BMG Labtech, Offenburg, Germany).
(§1) To determine whether iP300w was particularly active against CDS cells, vis-à-vis other related cancer cell lines, viability of 3 different Ewing sarcoma (ES) cell lines and several different immortalized cell lines treated with iP300w were compared. […] Furthermore, gene expression analyses confirmed the specificity of iP300w to CDS.

[2] = test system: global H3K18 and H3K27 acetylation (p300/CBP); assay: Western blot for acetylated H3K18 and H3K27 in cell lines overexpressing CIC-DUX4; assay type: cell-based, mouse and human; conditions: all analyzed CIC-DUX4 overexpressing cell lines, 18 hours
Protocol: For western blot analyses, cells were lysed with RIPA buffer supplemented with protease inhibitor cocktail (Complete, Roche), and proteins were separated on 10% SDS-PAGE gels, then transferred to PVDF membranes. Antibodies were diluted in 5% skim milk in TBST and incubated overnight at 4° C. or 1 hour at RT. An appropriate secondary HRP conjugated antibody was incubated for 1 hour at RT. Membranes were then washed with TBST, and signal was visualized using Pierce ECL western blotting substrate (Thermo Scientific). For immunofluorescence, cells cultured in 96 well plates were fixed in 4% PFA for 10 min., washed twice with PBS, permeabilized with 0.3% Triton X for 30 min, and blocked with 3% BSA for 1 hour at R/T. Primary antibodies were diluted in 3% BSA and incubated o/n at 4° C. An appropriate conjugated secondary antibody was applied for 60 min at RT. Nuclei were visualized using DAPI (1:5000, Sigma). […]

[3] = test system: CIC-DUX4 target genes like ETV4 and CCNE1 in ES cell lines (AF573, TC71, A673); assay: RT-qPCR for CIC-DUX4 target genes in Ewing sarcoma cell lines; assay type: cell-based; conditions: 0.03 μM, 18 hours
Protocol: (§2) RNA was extracted using an RNA extraction kit (Zymo) and cDNA was made using 0.5 μg total RNA with oligo-dT primer and Verso cDNA Synthesis Kit (Thermo Scientific) following the manufacturer's instructions. qPCRs were performed by using Premix Ex Taq (Probe qPCR, Takara) or SYBR-green. Gene expression levels were normalized to that of GAPDH and analyzed with 7500 System Software using the ACT method (Applied Biosystems). RNA-seq library preparation was done with 500 ng total RNA from NCC-CDS-X1 cells treated for 4 or 24 hours with iP300w (0.3 μM) using the Swift Rapid RNA Library Kit (SwiftBioscience). 36 base paired-end sequencing was performed on an Illumina NextSeq instrument at the University of Minnesota Genomics Center.
as §1

[4] = test system: CIC-DUX4 induced transcriptome in NCC-CDS-X1 cells; assay: RNA-seq transcriptional profile of NCC-CDS-X1 cells; assay type: cell-based, human; conditions: for number of genes changed by more than 10-fold / number of down-regulated genes (2-fold or greater) / number of up-regulated genes (2-fold or greater): 0.3 μM
Protocol: as §2
Paired-end Illumina sequencing reads were trimmed with TrimGalore (0.6.0) and transcript abundance was quantified using the human Gencode annotations (v34) using Salmon (v 1.2.1) with the GC-bias correction option. Counts were imported into R (v 4.0.2) using tximeta (v 1.6.3). Differentially expressed genes were identified with DESeq2 (v 1.28.1) and figures were made with the ComplexHeatmap (v 2.4.3), clusterProfiler (v 3.16.1) and ggplot2 (v 3.3.2) R packages. Sequencing reads and processed data have been deposited into GEO under the accession number GSE165729.
Next, global transcriptional profiles of NCC-CDS-X1 cells treated with iP300w were investigated. […] Among these differentially expressed genes, 170 and 244 were changed by more than 10-fold at 4 hour and 24 hours, respectively (FIG. 3A).

## CNC(=O)Cn1cc(-c2ccc3c(c2)[C@H](F)C[C@]32NC(=O)N(CC(=O)N(Cc3ccc(F)cc3)[C@@H](C)C(F)(F)F)C2=O)cn1 (single isomer, unassigned) [iP300w]
[1]
  effect on cell viability: only effective for CIC-DUX4 driven sarcomas and not for the other cell lines
[2]
  effect on CIC-DUX4-induced global H3K18 and H3K27 acetylation: abolished
[3]
  effect on basal expression of CIC-DUX4 target genes and cell cycle-related genes: did not affect the basal expression
[4]; 4 hour
  number of genes changed by more than 10-fold: 170 genes
[4]; 4 hours post-treatment
  number of down-regulated genes (2-fold or greater): 1182 genes
  number of up-regulated genes (2-fold or greater): 872 genes
[4]; 24 hours
  number of genes changed by more than 10-fold: 244 genes
  effect on p21 (CDKN1A) expression: upregulated in the 24 hours
[4]; 24 hours post-treatment
  number of down-regulated genes (2-fold or greater): 2042 genes
  number of up-regulated genes (2-fold or greater): 1658 genes
[4]; set of 165 CIC-DUX4 targets, 4 hours
  effect on key transformation-regulatory genes ETV1, ETV4 and CCNE1: significantly downregulated within 4 hours
[4]; set of 165 CIC-DUX4 targets, 24 hours
  effect on CIC-DUX4 targets: vast majority of CIC-DUX4 targets to be downregulated
